Read-outs that look alike come from different tables or passages of the source.
Experiments:
NLRP3 [1] = molecular target: T1, NLRP3 (Homo sapiens, UniProt Q96P20); assay: THP-1 cells pyroptosis assay; format: cell-based; design: Seed THP-1 cells (25,000 cells/well) containing 1.0 μg/ml LPS; host or cells: THP-1 cells, LPS-primed, nigericin-stimulated; conditions: LPS 1 μg/ml, nigericin 5 μM, resazurin read-out
Summary of the method: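 THP-1 cells (25,000/well) primed with 1 μg/ml LPS in serum-free RPMI, given compound (8-point half-log, 10 μM top, 0.1% DMSO) for 3 hrs, then nigericin 5 μM for 1 hr at 37° C. Viability of remaining cells read by resazurin (100 μM, 1–2 hrs) fluorescence; IC50 from 4-parameter fit.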

NLRP3 [2] = molecular target: T1, NLRP3; assay: Human whole blood IL1β release assay; format: cell-based; design: Plate out 80 μl of whole blood containing 1 μg/ml of LPS; from tissue; host or cells: human whole blood from healthy donors, LPS-primed, nigericin-stimulated; conditions: LPS 1 μg/ml, nigericin 10 μM, IL-1β AlphaLisa, read-out: HWB IC50
Protocol: For systemic delivery, the ability to inhibit NLRP3 when the compounds are present within the bloodstream is of great importance. For this reason, the NLRP3 inhibitory activity of a number of compounds in human whole blood was investigated in accordance with the following protocol.
Human whole blood in Li-heparin tubes was obtained from healthy donors from a volunteer donor panel. • 1. Plate out 80 μl of whole blood containing 1 μg/ml of LPS in 96-well, clear bottom cell culture plate (Corning #3585) • 2. Add […] compound (8 points half-log dilution with 10 μM top dose) or vehicle (DMSO 0.1% FAC) to the appropriate wells • 3. Incubate for 3 hrs at 37° C., 5% CO2 • 4. Add 10 μl Nigericin (Sigma #N7143) (10 μM FAC) to all wells • 5. Incubate for 1 hr at 37° C., 5 CO2 • 6. At the end of the incubation period, spin plates at 300×g for 5 mins to pellet cells and remove 20 μl of supernatant and add to 96-well v-bottom plates for […] analysis (note: these plates containing the supernatants can be stored at −80° C. to be analysed at a later date) • 7. IL-1β was measured according to the manufacturer protocol (Perkin Elmer-AlphaLisa IL-1 Kit AL220F-5000) • 8. IC50 data is fitted to anon-linear regression equation (log inhibitor vs response-variable slope 4-parameters)

[3] = PK protocol (intravenous and oral administration); format: in vivo, male Sprague Dawley rats; conditions: male, Sprague Dawley, plasma, rat; for Vd: read-out: Vdss
Protocol: Pharmacokinetic parameters were determined in male Sprague Dawley rats (Charles River, UK, 250-350 g; or Vital River Laboratory Animal Technology Co Ltd, Beijing, China, 7-9 weeks old). Animals were individually housed during the study and maintained under a 12 h light/dark cycle. Animals had free access to food and water except that some orally dosed animals were food deprived overnight prior to the study. For intravenous administration, compounds were formulated as a solution in water or DMSO:PBS [10:90] in 2 mL/kg dosing volume and administered via tail vein. For oral administration, compounds were formulated as a solution in water or DMSO:water [10:90] in 5 mL/kg dosing volume and administered orally.
Serial blood samples (about 120-300 μL) were taken from each animal at each of 8 time-points post dose (0.083, 0.25, 0.5, 1, 2, 4, 8 and 24 h) or at each of 12 time-points post dose (0.03, 0.1, 0.17, 0.25, 0.5, 1, 2, 4, 6, 8, 12 and 24 h) or pre-dose and at each of 9 time-points post dose (0.25, 0.5, 1, 2, 4, 6, 8, 12 and 24 h). Samples were held on ice for no longer than 30 minutes before centrifugation (10,000 rpm (8,385 g) for 3 minutes; or 5,696 rpm (3,000 g) for 15 minutes) for plasma generation. Plasma was frozen on dry ice prior to bioanalysis. PK parameters were generated from LC-MS/MS data using Dotmatics or Phoenix WinNonlin 6.3 software.

T1 sequence (Q96P20 whole entry): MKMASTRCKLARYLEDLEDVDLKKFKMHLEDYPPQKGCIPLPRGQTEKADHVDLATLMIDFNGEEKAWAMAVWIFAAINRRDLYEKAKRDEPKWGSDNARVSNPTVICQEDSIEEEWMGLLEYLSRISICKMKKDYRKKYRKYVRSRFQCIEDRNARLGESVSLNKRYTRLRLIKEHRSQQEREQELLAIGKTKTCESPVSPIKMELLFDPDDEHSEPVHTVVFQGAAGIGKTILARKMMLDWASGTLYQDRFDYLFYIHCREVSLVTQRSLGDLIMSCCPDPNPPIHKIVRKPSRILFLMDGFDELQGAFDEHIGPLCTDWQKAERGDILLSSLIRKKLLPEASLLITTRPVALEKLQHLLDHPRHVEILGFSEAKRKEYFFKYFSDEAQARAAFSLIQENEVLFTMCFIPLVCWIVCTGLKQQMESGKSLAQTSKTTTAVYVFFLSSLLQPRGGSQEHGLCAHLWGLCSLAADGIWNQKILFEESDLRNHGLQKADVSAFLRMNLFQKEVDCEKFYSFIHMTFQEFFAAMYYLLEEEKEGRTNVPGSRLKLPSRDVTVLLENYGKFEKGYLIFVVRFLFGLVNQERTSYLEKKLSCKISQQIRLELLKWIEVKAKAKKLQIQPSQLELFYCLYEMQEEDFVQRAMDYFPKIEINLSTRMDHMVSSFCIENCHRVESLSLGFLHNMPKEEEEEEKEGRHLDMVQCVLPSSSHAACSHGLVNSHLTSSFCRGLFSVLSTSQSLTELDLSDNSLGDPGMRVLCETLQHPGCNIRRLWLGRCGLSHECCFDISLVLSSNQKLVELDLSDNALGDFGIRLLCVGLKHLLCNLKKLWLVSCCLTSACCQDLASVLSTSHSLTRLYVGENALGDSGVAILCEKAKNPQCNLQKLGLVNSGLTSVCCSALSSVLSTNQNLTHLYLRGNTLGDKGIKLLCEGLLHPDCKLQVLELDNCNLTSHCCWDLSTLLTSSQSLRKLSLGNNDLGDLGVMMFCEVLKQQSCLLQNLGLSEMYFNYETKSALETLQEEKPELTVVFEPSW

Compound | IC50 (NLRP3 [1]) [µM] | IC50 (NLRP3 [2]) [µM] | AUC ([3]; intravenous, dose 1 mg/kg) [ng·h/mL] | clearance ([3]; intravenous, dose 1 mg/kg) [mL/min/kg] | half-life ([3]; intravenous, dose 1 mg/kg) [h] | Vd ([3]; intravenous, dose 1 mg/kg) [L/kg] | also measured
C[C@H](O)Cn1ccc(S(=O)(=O)NC(=O)Nc2c3c(cc4c2CCC4)CCC3)n1 [Example 11, (S)—N-((1,2,3,5,6,7-Hexahydro-s-indacen-4-yl)carbamoyl)-1-(2-hydroxypropyl)-1H-pyrazole-3-sulfonamide] | 0.04 to 0.16 | < 0.4 | 7380 | 2.3 | 2.9 | 0.36 | 
CC(C)(O)Cn1ccc(S(=O)(=O)NC(=O)Nc2c3c(cc4c2CCC4)CCC3)n1 [Example 10, N-((1,2,3,5,6,7-Hexahydro-s-indacen-4-yl)carbamoyl)-1-(2-hydroxy-2-methylpropyl)-1H-pyrazole-3-sulfonamide] | 0.04 to 0.16 | 0.4 to 0.8 | 4290 | 3.9 | 2.9 | 0.61 | AUC ([3]; oral, dose 3 mg/kg): 9660 ng·h/mL; CL/F ([3]; oral, dose 3 mg/kg): 5.2 mL/min/kg; Cmax ([3]; oral, dose 3 mg/kg): 1770 ng/mL; Tmax ([3]; oral, dose 3 mg/kg): 0.29 h; bioavailability ([3]; oral, dose 3 mg/kg): 75%; half-life ([3]; oral, dose 3 mg/kg): 3.5 h
COC1(c2cc(S(=O)(=O)NC(=O)Nc3c4c(cc5c3CCC5)CCC4)nn2C)CCOC1 (centres unmarked) [Example 48, N-((1,2,3,5,6,7-Hexahydro-s-indacen-4-yl)carbamoyl)-5-(3-methoxytetrahydrofuran-3-yl)-1-methyl-1H-pyrazole-3-sulfonamide] | < 0.04 | < 0.4 | 948 | 17.6 | 2.9 | 1.74 | 
CC(O)C(C)n1ccc(S(=O)(=O)NC(=O)Nc2c3c(cc4c2CCC4)CCC3)n1 (racemic) [Example 26, N-((1,2,3,5,6,7-Hexahydro-s-indacen-4-yl)carbamoyl)-1-(3-hydroxybutan-2-yl)-1H-pyrazole-3-sulfonamide] | 0.04 to 0.16 | < 0.4 |  |  |  |  | AUC ([3]; intravenous, dose 1.74 mg/kg): 8060 ng·h/mL; clearance ([3]; intravenous, dose 1.74 mg/kg): 4.2 mL/min/kg; half-life ([3]; intravenous, dose 1.74 mg/kg): 3.6 h; Vd ([3]; intravenous, dose 1.74 mg/kg): 0.6 L/kg
C[C@@H](O)Cn1ccc(S(=O)(=O)NC(=O)Nc2c3c(cc4c2CCC4)CCC3)n1 [Example 16, (R)—N-((1,2,3,5,6,7-Hexahydro-s-indacen-4-yl)carbamoyl)-1-(2-hydroxypropyl)-1H-pyrazole-3-sulfonamide] | 0.04 to 0.16 | 0.4 to 0.8 | 10200 | 1.8 | 3.8 | 0.41 | AUC ([3]; oral, dose 3 mg/kg): 19600 ng·h/mL; CL/F ([3]; oral, dose 3 mg/kg): 2.6 mL/min/kg; Cmax ([3]; oral, dose 3 mg/kg): 3960 ng/mL; Tmax ([3]; oral, dose 3 mg/kg): 0.83 h; bioavailability ([3]; oral, dose 3 mg/kg): 63.8%; half-life ([3]; oral, dose 3 mg/kg): 3.2 h
O=C(Nc1c2c(cc3c1CCC3)CCC2)NS(=O)(=O)c1ccn(C2(CO)CCC2)n1 [Example 24, N-((1,2,3,5,6,7-Hexahydro-s-indacen-4-yl)carbamoyl)-1-(1-(hydroxymethyl)cyclobutyl)-1H-pyrazole-3-sulfonamide] | 0.04 to 0.16 | < 0.4 | 7030 | 2.4 | 3.5 | 0.37 | 
COCCN(CCOC)C(=O)c1cc(S(=O)(=O)NC(=O)Nc2c3c(cc4c2CCC4)CCC3)nn1C [Example 72, 3-(N-((1,2,3,5,6,7-Hexahydro-s-indacen-4-yl)carbamoyl)sulfamoyl)-N,N-bis(2-methoxyethyl)-1-methyl-1H-pyrazole-5-carboxamide] | 0.04 to 0.16 | 0.4 to 0.8 |  |  |  |  | AUC ([3]; intravenous, dose 2.88 mg/kg): 330 ng·h/mL; clearance ([3]; intravenous, dose 2.88 mg/kg): 149 mL/min/kg; half-life ([3]; intravenous, dose 2.88 mg/kg): 0.2 h; Vd ([3]; intravenous, dose 2.88 mg/kg): 1.84 L/kg

Second part, led by results:

IC50 (NLRP3 [1]) [µM] | IC50 (NLRP3 [2]) [µM] | AUC ([3]; intravenous, dose 1 mg/kg) [ng·h/mL] | clearance ([3]; intravenous, dose 1 mg/kg) [mL/min/kg] | half-life ([3]; intravenous, dose 1 mg/kg) [h] | Vd ([3]; intravenous, dose 1 mg/kg) [L/kg] | Compound | also measured
0.16 to 0.64 | 0.8 to 1.6 | 1030 | 16.2 | 0.3 | 0.3 | COCCn1ccc(S(=O)(=O)NC(=O)Nc2c3c(cc4c2CCC4)CCC3)n1 [Example 2, N-((1,2,3,5,6,7-Hexahydro-s-indacen-4-yl)carbamoyl)-1-(2-methoxyethyl)-1H-pyrazole-3-sulfonamide] | 
0.04 to 0.16 | 0.4 to 0.8 | 1160 | 14.4 | 2.9 | 2.24 | COCCN(C)C(=O)c1cc(S(=O)(=O)NC(=O)Nc2c3c(cc4c2CCC4)CCC3)nn1C [Example 73, 3-(N-((1,2,3,5,6,7-Hexahydro-s-indacen-4-yl)carbamoyl)sulfamoyl)-N-(2-methoxyethyl)-N,1-dimethyl-1H-pyrazole-5-carboxamide] | AUC ([3]; oral, dose 3 mg/kg): 2420 ng·h/mL; Cmax ([3]; oral, dose 3 mg/kg): 701 ng/mL
0.04 to 0.16 | < 0.4 | 1860 | 9 | 6.6 | 1.18 | Cn1nc(S(=O)(=O)NC(=O)Nc2c3c(cc4c2CCC4)CCC3)cc1C1(O)COC1 [Example 51, N-((1,2,3,5,6,7-Hexahydro-s-indacen-4-yl)carbamoyl)-5-(3-hydroxyoxetan-3-yl)-1-methyl-1H-pyrazole-3-sulfonamide] | 
0.16 to 0.64 | 0.8 to 1.6 | 8620 | 1.9 | 3.4 | 0.43 | O=C(Nc1c2c(cc3c1CCC3)CCC2)NS(=O)(=O)c1ccn(C2CCOC2)n1 (centres unmarked) [Example 1, N-((1,2,3,5,6,7-Hexahydro-s-indacen-4-yl)carbamoyl)-1-(tetrahydrofuran-3-yl)-1H-pyrazole-3-sulfonamide] | 
< 0.04 | < 0.4 |  |  |  |  | CCn1nc(S(=O)(=O)NC(=O)Nc2c3c(cc4c2CCC4)CCC3)cc1C1(OC)COC1 [Example 45, 1-Ethyl-N-((1,2,3,5,6,7-hexahydro-s-indacen-4-yl)carbamoyl)-5-(3-methoxyoxetan-3-yl)-1H-pyrazole-3-sulfonamide] | AUC ([3]; intravenous, dose 2.99 mg/kg): 2320 ng·h/mL; clearance ([3]; intravenous, dose 2.99 mg/kg): 21.6 mL/min/kg; half-life ([3]; intravenous, dose 2.99 mg/kg): 0.8 h; Vd ([3]; intravenous, dose 2.99 mg/kg): 1.11 L/kg
< 0.04 | < 0.4 | 1280 | 13.3 | 11.5 | 3.48 | COC1(c2cc(S(=O)(=O)NC(=O)Nc3c4c(cc5c3CCC5)CCC4)nn2C)COC1 [Example 53, N-((1,2,3,5,6,7-Hexahydro-s-indacen-4-yl)carbamoyl)-5-(3-methoxyoxetan-3-yl)-1-methyl-1H-pyrazole-3-sulfonamide] | 
0.16 to 0.64 | < 0.4 | 38700 | 0.4 | 3.6 | 0.09 | C[C@H](CO)n1ccc(S(=O)(=O)NC(=O)Nc2c3c(cc4c2CCC4)CCC3)n1 [Example 13, (R)—N-((1,2,3,5,6,7-Hexahydro-s-indacen-4-yl)carbamoyl)-1-(1-hydroxypropan-2-yl)-1H-pyrazole-3-sulfonamide] | 
< 0.04 | < 0.4 | 3880 | 4.6 | 1.1 | 0.35 | COC1(c2cc(S(=O)(=O)NC(=O)Nc3c4c(cc5c3CCC5)CCC4)nn2C2CC2)COC1 [Example 38, 1-Cyclopropyl-N-((1,2,3,5,6,7-hexahydro-s-indacen-4-yl)carbamoyl)-5-(3-methoxyoxetan-3-yl)-1H-pyrazole-3-sulfonamide] | 
